Measurements as given in publication PMC10426190 (Breast Cancer Research : BCR, 2023).

Tested on: E2-induced (ER target) genes in MCF7
Assay: Gene expression analysis by RNA-sequencing in MCF7 with E2 stimulation
Assay type: cell-based, human
Conditions: MCF7; 1 nM E2 ± 1 μM compound, 24 h
Protocol: MCF7 were cultured in hormone deprivation media (with 10% charcoal-stripped FBS) for at least 3 days before assay. Trypsinized cells were seeded in a 12-well plate, stimulated with 1 nM β-estradiol (E2), and treated with/without 1 μM compounds for 24 h. Total RNA was extracted using the TRIzol reagent according to the manufacturer’s protocol. RNA purity and quantification were evaluated using the NanoDrop 2000 spectrophotometer (Thermo Scientific, USA). RNA integrity was assessed using the Agilent 2100 Bioanalyzer (Agilent Technologies, Santa Clara, CA, USA). Then the libraries were constructed using TruSeq Stranded mRNA LT Sample Prep Kit (Illumina, San Diego, CA, USA) according to the manufacturer’s instructions. The transcriptome sequencing and analysis were conducted by OE Biotech Co., Ltd. (Shanghai, China). The libraries were sequenced on an Illumina HiSeq X Ten platform and 150 bp paired-end reads were generated. […] Raw data (raw reads) of FASTq format were firstly processed using Trimmomatic and the low-quality reads were removed to obtain the clean reads. […] The clean reads were mapped to the human genome (GRCh38) using HISAT2 [27]. FPKM [28] of each gene was calculated using Cufflinks, and the read counts of each gene were obtained by HTSeqcount. Differential expression analysis was performed using the DESeq (2012) R package.
MCF7 with hormone-deprived pre-treatment were administrated ER ligands or not present with 1 nM E2 stimulation for 24 h incubation in a 12-well plate. Total mRNA was isolated from treated cells and sequenced on an Illumina HiSeq X Ten platform. FPKM of each gene was calculated using Cufflinks and Differential expression genes analysis by using the DESeq (2012) R package. […] T47D EFM-19 and HCC1500 cells were grown in RPMI media supplemented with 10% charcoal-stripped FBS for 14 days and then treated with ER antagonist (1 μM) or DMSO in the presence E2 (1nM) stimulation for 24 h before RNA isolation and gene expression analysis as described in methods. […] The uteruses were harvested 24 h after the final doses and stained by toluidine blue. Endometrial height was assessed from the basement membrane to the luminal border (scale bar in green lines: 200 μm), Arrows indicate the uterine epithelium (e).

For `C[C@]12CC[C@@H]3c4ccc(O)cc4CC[C@H]3[C@@H]1CC[C@@H]2O` [E2, β-estradiol], the ACTG2 expression was 3.78 FPKM, the ADCY1 expression was 29.74 FPKM and the AGR3 expression was 24.59 FPKM. For the same compound, the AMZ1 expression was 3.24 FPKM, the ANLN expression was 47.32 FPKM and the ARHGAP36 expression was 3.84 FPKM. For the same compound, the ASCL1 expression was 5.48 FPKM, the ASF1B expression was 78.22 FPKM and the ASMTL-2 expression was 6.46 FPKM. The ATAD2 expression was 69.95 FPKM, the ATRNL1 expression was 0.42 FPKM and the AURKB expression was 43.03 FPKM. The BIRC5 expression was 50.28 FPKM, the BLM expression was 8.02 FPKM and the BMPER expression was 1.39 FPKM. It also gave a BRCA1 expression of 9.45 FPKM, a BRCA2 expression of 5.65 FPKM and a BRIP1 expression of 54.99 FPKM. The BUB1B expression was 18.35 FPKM, the C1orf226 expression was 13.05 FPKM and the C5AR2 expression was 3.18 FPKM. The CA2 expression was 184.51 FPKM, the CA12 expression was 52.56 FPKM and the CALCR expression was 6.65 FPKM. The CAV1 expression was 11.53 FPKM, the CCN5 expression was 50.43 FPKM and the CCNA2 expression was 35.91 FPKM. The CCNE2 expression was 17.15 FPKM, the CD99-2 expression was 8.67 FPKM and the CDC6 expression was 16.34 FPKM. For the same compound, the CDC25A expression was 7.21 FPKM, the CDC45 expression was 22.61 FPKM and the CDCA3 expression was 12.59 FPKM. It also gave a CDCA4 expression of 35.30 FPKM, a CDCA5 expression of 32.97 FPKM and a CDCA7 expression of 8.46 FPKM. The CDH26 expression was 1.84 FPKM, the CDK1 expression was 34.56 FPKM and the CDT1 expression was 51.94 FPKM. It also gave a CENPI expression of 6.53 FPKM, a CENPU expression of 12.95 FPKM and a CHAF1B expression of 5.21 FPKM. For the same compound, the CHEK1 expression was 5.59 FPKM, the CKS1B expression was 97.65 FPKM and the CLSPN expression was 5.95 FPKM. The COL12A1 expression was 4.88 FPKM, the CXCL12 expression was 18.59 FPKM and the DDIAS expression was 9.79 FPKM. It also gave a DHRSX-2 expression of 1.19 FPKM, a DKK1 expression of 65.08 FPKM and a DNA2 expression of 7.03 FPKM. The DPYSL5 expression was 1.59 FPKM, the DSCC1 expression was 15.71 FPKM and the DTL expression was 6.96 FPKM. For the same compound, the E2F1 expression was 27.20 FPKM, the E2F2 expression was 5.64 FPKM and the E2F7 expression was 9.64 FPKM. It also gave an E2F8 expression of 10.32 FPKM, an ELOVL2 expression of 16.88 FPKM and an EME1 expression of 10.05 FPKM. It also gave an ERCC6L expression of 4.70 FPKM, an ESCO2 expression of 7.26 FPKM and an ESPL1 expression of 17.48 FPKM. For the same compound, the EXO1 expression was 10.16 FPKM, the FAM20A expression was 2.20 FPKM and the FAM111B expression was 12.41 FPKM. The FANCA expression was 22.66 FPKM, the FANCD2 expression was 15.48 FPKM and the FANCI expression was 48.65 FPKM. It also gave an FEN1 expression of 69.25 FPKM, an FIGNL1 expression of 5.08 FPKM and an FKBP4 expression of 141.57 FPKM. The GATA4 expression was 0.17 FPKM, the GFRA1 expression was 93.16 FPKM and the GINS1 expression was 23.84 FPKM. The GINS2 expression was 36.18 FPKM, the GJA1 expression was 1.09 FPKM and the GLA expression was 91.41 FPKM. For the same compound, the GP1BB expression was 2.96 FPKM, the GPR68 expression was 2.46 FPKM and the GPRIN1 expression was 8.93 FPKM. The GREB1 expression was 60.67 FPKM, the H2AX expression was 195.62 FPKM and the HBB expression was 2.07 FPKM. It also gave an HELLS expression of 7.42 FPKM, an HEY2 expression of 5.27 FPKM and an HMGB2 expression of 247.66 FPKM. It also gave an IGFBP4 expression of 131.73 FPKM, an IGSF1 expression of 11.09 FPKM and an ITGA2B expression of 1.22 FPKM. It also gave a KIF11 expression of 25.57 FPKM, a KIF18B expression of 9.55 FPKM and a KIFC1 expression of 32.81 FPKM. For the same compound, the KLK11 expression was 14.79 FPKM, the KNL1 expression was 7.74 FPKM and the KNTC1 expression was 15.58 FPKM. It also gave an LHX2 expression of 3.63 FPKM, an LIG1 expression of 50.95 FPKM and an LMNB1 expression of 103.66 FPKM. It also gave an MAD2L1 expression of 15.82 FPKM, an MCM2 expression of 79.68 FPKM and an MCM3 expression of 73.54 FPKM. It also gave an MCM4 expression of 90.54 FPKM, an MCM5 expression of 31.11 FPKM and an MCM6 expression of 49.04 FPKM. For the same compound, the MCM7 expression was 195.09 FPKM, the MCM10 expression was 11.30 FPKM and the MELK expression was 23.52 FPKM. For the same compound, the MKI67 expression was 43.57 FPKM, the MYB expression was 14.56 FPKM and the MYBL1 expression was 7.63 FPKM. It also gave an MYBL2 expression of 105.97 FPKM, an NCAPG2 expression of 42.44 FPKM and an NCAPG expression of 16.64 FPKM. It also gave an NPY1R expression of 21.66 FPKM, an ORC1 expression of 9.75 FPKM and an ORC6 expression of 17.34 FPKM. For the same compound, the PAQR4 expression was 27.39 FPKM, the PBK expression was 34.81 FPKM and the PCLAF expression was 64.57 FPKM. It also gave a PCNA expression of 139.06 FPKM, a PDZK1 expression of 5.01 FPKM and a PGR expression of 8.19 FPKM. For the same compound, the PKIB expression was 60.35 FPKM, the PKMYT1 expression was 41.08 FPKM and the POLA1 expression was 6.08 FPKM. It also gave a POLA2 expression of 14.49 FPKM, a POLD1 expression of 24.97 FPKM and a POLE2 expression of 6.15 FPKM. For the same compound, the POLE expression was 25.41 FPKM, the POLQ expression was 6.41 FPKM and the PRIM1 expression was 28.80 FPKM. It also gave a PRSS23 expression of 215.68 FPKM, an RAB31 expression of 21.61 FPKM and an RAD51AP1 expression of 13.82 FPKM. For the same compound, the RAD51 expression was 9.69 FPKM, the RAD54L expression was 12.35 FPKM and the RAMP3 expression was 13.53 FPKM. The RAPGEFL1 expression was 7.70 FPKM, the RBL1 expression was 5.83 FPKM and the RECQL4 expression was 32.15 FPKM. It also gave an RERG expression of 8.59 FPKM, an RET expression of 10.12 FPKM and an RFC2 expression of 36.71 FPKM. For the same compound, the RFC3 expression was 9.92 FPKM, the RFC4 expression was 27.17 FPKM and the RNASEH2A expression was 63.93 FPKM. For the same compound, the RRM1 expression was 40.40 FPKM, the RRM2 expression was 98.16 FPKM and the RUBCNL expression was 1.40 FPKM. It also gave an SDK2 expression of 1.00 FPKM, an SFXN2 expression of 31.80 FPKM and an SHCBP1 expression of 7.21 FPKM. The SKA3 expression was 14.05 FPKM, the SLC6A14 expression was 33.54 FPKM and the SMC2 expression was 14.75 FPKM. For the same compound, the SPC24 expression was 17.07 FPKM, the SPC25 expression was 16.49 FPKM and the STC2 expression was 134.11 FPKM. The TACC3 expression was 40.66 FPKM, the TCF19 expression was 21.19 FPKM and the TCOF1 expression was 21.81 FPKM. It also gave a TGM2 expression of 1.78 FPKM, a TICRR expression of 10.96 FPKM and a TK1 expression of 126.85 FPKM. For the same compound, the TMEM26 expression was 4.29 FPKM, the TMEM164 expression was 18.93 FPKM and the TONSL expression was 21.56 FPKM. For the same compound, the TOP2A expression was 69.34 FPKM, the TP73 expression was 3.93 FPKM and the TRIP13 expression was 21.48 FPKM. It also gave a TUBA1B expression of 1112.26 FPKM, a TUBB expression of 568.06 FPKM and a TYMS expression of 74.96 FPKM. The UBE2C expression was 67.26 FPKM, the UBE2T expression was 108.61 FPKM and the UHRF1 expression was 26.62 FPKM. It also gave a UNG expression of 64.43 FPKM, a WDHD1 expression of 10.21 FPKM and a WDR62 expression of 15.52 FPKM. It also gave a WDR76 expression of 5.46 FPKM, an XRCC2 expression of 7.64 FPKM and an XRCC3 expression of 19.64 FPKM. It also gave a ZGRF1 expression of 3.51 FPKM and a ZNF367 expression of 15.85 FPKM.
